Key:
[1] = Inhibition of HCMV protease; parameters: species or system Human betaherpesvirus 5
M109 = assay: Cytotoxicity against mouse M109 cells after 72 hrs by XTT assay; type: functional, cell-based; settings: M109, 72 h

- IC50 [1]: 30 µM
Structure (SMILES): CC(C)C1O/C(=C2/C(=O)NC(CC(N)=O)C2=O)C=CC1C (configuration not stated) [BRIPIODIONEN]
- IC50 (M109): 34 µM

— ChEMBL document CHEMBL1146433, “Bripiodionen, a new inhibitor of human cytomegalovirus protease from Streptomyces sp. WC76599” (J Nat Prod, 1997)
